6 compounds from US10336792B2, “Antimicrobial peptide dendrimers” (priority 2014, dated 2019) can be followed below.

Holding throughout (type): cell-based
Experiment [1] deals with Pseudomonas aeruginosa (strain PA01). The experiment can be described thus: microbe, parasite or virus in culture. The following applies: strain. The essentials:
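Broth microdilution MIC against P. aeruginosa PAO1 in LB: peptides serially diluted by ⅔, bacteria added at OD600 0.001 and incubated 18–24 h at 37 °C. MTT added; MIC is the lowest concentration preventing visible growth.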

Experiment [2] concerns Escherichia coli (strain DH5α). The following applies: DH5α. As for the experimental part: (§1) Antimicrobial activity was assayed against Bacillus subtilis (strain BR151), Escherichia coli (strain DH5α) and Pseudomonas aeruginosa (strain PA01). Microdilution broth method was used to determine the minimal inhibitory concentration (MIC). A colony of bacteria was grown in LB-medium overnight at 37° C. The concentration was quantified by measuring absorbance at 600 nm and diluted to OD600=0.1 (1×10^8 CFU/mL). The samples were prepared as stock solutions of 1 mg mL^−1 in H2O and diluted serially by ⅔ in nutrient LB in a 96-well microtiterplate (Cornstar, polypropylene, untreated). The sample solutions (50 μL) were mixed with the diluted bacterial suspension with an OD600 nm of 0.001 (50 μL). […] The plates were incubated at 37° C. until satisfactory growth (18-24 h). For each test, two columns of the plate were kept for sterility control (SC, broth only) and growth control (GC, broth with bacterial inoculums, no antibiotics). 10 μL of a solution of MTT (0.1% in H2O) was added to each well. The minimal inhibitory concentration (MIC) was defined as the lowest concentration of the antimicrobial substance (peptide dendrimer) that inhibited visible growth of the tested bacteria (yellow) with the unaided eye. For microbiological study the linear peptide LysTyrLysLysAlaLeuLysLysLeuAlaLysLeuLeu (SEQ ID No. 1) was used as reference.
(§2) The AMPD library was tested for their antimicrobial activity against B. subtilis BR151, a Gram-positive bacterium and E. coli DH5α, another Gram-negative bacterium, to cover a broader spectrum of different bacteria. […] Therefore no explicit SAR can be established, but clearly the hydrophobic amino acids Ala and Tyr seem to have a significant influence in reducing activity.

Experiment [3] relates to Bacillus subtilis (strain BR151). The following applies: strain BR151. As to the method:
as §1, §2

In brackets after ≈: the same amount, converted by molar mass. Positions of bridges follow the written chain, without caps; N, C: chain ends. Non-standard residues stand in square brackets, D forms with d. Residues, ends and D or L forms follow the SMILES beside them. Groups on a side chain read outwards from the residue. Chains are numbered I, II in the order given. *: point of attachment. Lauroyl = CCCCCCCCCCCC(=O)*; Decanoyl = CCCCCCCCCC(=O)*; dDap = NC[C@@H](N)C(=O)O; Dab = NCC[C@H](N)C(=O)O; Dap = NC[C@H](N)C(=O)O

On to `CCCCCCCCCCCC(=O)NCCCC[C@H](NC(=O)[C@H](CC(C)C)NC(=O)[C@H](CCCCN)NC(=O)[C@H](CCCCNC(=O)[C@H](CC(C)C)NC(=O)[C@H](CCCCN)NC(=O)[C@H](CCCCNC(=O)[C@H](CC(C)C)NC(=O)[C@H](CCCCN)NC(=O)[C@H](CCCCNC(=O)[C@H](CC(C)C)NC(=O)[C@@H](N)CCCCN)NC(=O)[C@H](CC(C)C)NC(=O)[C@@H](N)CCCCN)NC(=O)[C@H](CC(C)C)NC(=O)[C@H](CCCCN)NC(=O)[C@H](CCCCNC(=O)[C@H](CC(C)C)NC(=O)[C@@H](N)CCCCN)NC(=O)[C@H](CC(C)C)NC(=O)[C@@H](N)CCCCN)NC(=O)[C@H](CC(C)C)NC(=O)[C@H](CCCCN)NC(=O)[C@H](CCCCNC(=O)[C@H](CC(C)C)NC(=O)[C@H](CCCCN)NC(=O)[C@H](CCCCNC(=O)[C@H](CC(C)C)NC(=O)[C@@H](N)CCCCN)NC(=O)[C@H](CC(C)C)NC(=O)[C@@H](N)CCCCN)NC(=O)[C@H](CC(C)C)NC(=O)[C@H](CCCCN)NC(=O)[C@H](CCCCNC(=O)[C@H](CC(C)C)NC(=O)[C@@H](N)CCCCN)NC(=O)[C@H](CC(C)C)NC(=O)[C@@H](N)CCCCN)C(N)=O` [MSt-267, (KL)8(KKL)4(KKL)2(KKLKC12)] (I: H-KLK([Leu-Lys])KLKKLKKLK(Lauroyl)-NH2 / II: H-KLK([Leu-Lys])KLKKL / III: H-KLK([Leu-Lys])KL / IV: H-KLK([Leu-Lys])KL; amide I:6-IV:C, I:9-II:C, II:6-III:C), for which the “MIC P. aeruginosa PAO1” value in experiment [1] amounted to 1 µg/mL (≈ 0.206 µM). Further, in experiment [2], the “MIC E. coli DH5α” value worked out at 1 µg/mL (≈ 0.206 µM). Besides, in experiment [3], the “MIC B. subtilis BR151” value amounted to 4 µg/mL (≈ 0.826 µM).

In the case of `CC(C)C[C@H](NC(=O)[C@H](CCCNC(=N)N)NC(=O)[C@H](CNC(=O)[C@H](CC(C)C)NC(=O)[C@H](CCCNC(=N)N)NC(=O)[C@H](CNC(=O)[C@H](CC(C)C)NC(=O)[C@@H](N)CCCNC(=N)N)NC(=O)[C@H](CC(C)C)NC(=O)[C@@H](N)CCCNC(=N)N)NC(=O)[C@H](CC(C)C)NC(=O)[C@H](CCCNC(=N)N)NC(=O)[C@H](CNC(=O)[C@H](CC(C)C)NC(=O)[C@@H](N)CCCNC(=N)N)NC(=O)[C@H](CC(C)C)NC(=O)[C@@H](N)CCCNC(=N)N)C(N)=O` [MSt-139, (RL)4(BRL)2(BRL)] (I: H-RL[Dap]([Leu-Arg])RL[Dap]RL-NH2 / II: H-RL[Dap]([Leu-Arg])RL; amide I:6-II:C), the “MIC P. aeruginosa PAO1” value in experiment [1] was 2 µg/mL (≈ 0.926 µM). In addition, the “MIC E. coli DH5α” value in experiment [2] is 17 µg/mL (≈ 7.87 µM). Also, the “MIC B. subtilis BR151” value in experiment [3] was found to be 16 µg/mL (≈ 7.4 µM).

On to `CC(C)C[C@@H](NC(=O)[C@@H](CCCNC(=N)N)NC(=O)[C@@H](CNC(=O)[C@@H](CC(C)C)NC(=O)[C@@H](CCCNC(=N)N)NC(=O)[C@@H](CNC(=O)[C@@H](CC(C)C)NC(=O)[C@@H](CCCNC(=N)N)NC(=O)[C@@H](CNC(=O)[C@@H](CC(C)C)NC(=O)[C@H](N)CCCNC(=N)N)NC(=O)[C@@H](CC(C)C)NC(=O)[C@H](N)CCCNC(=N)N)NC(=O)[C@@H](CC(C)C)NC(=O)[C@@H](CCCNC(=N)N)NC(=O)[C@@H](CNC(=O)[C@@H](CC(C)C)NC(=O)[C@H](N)CCCNC(=N)N)NC(=O)[C@@H](CC(C)C)NC(=O)[C@H](N)CCCNC(=N)N)NC(=O)[C@@H](CC(C)C)NC(=O)[C@@H](CCCNC(=N)N)NC(=O)[C@@H](CNC(=O)[C@@H](CC(C)C)NC(=O)[C@@H](CCCNC(=N)N)NC(=O)[C@@H](CNC(=O)[C@@H](CC(C)C)NC(=O)[C@H](N)CCCNC(=N)N)NC(=O)[C@@H](CC(C)C)NC(=O)[C@H](N)CCCNC(=N)N)NC(=O)[C@@H](CC(C)C)NC(=O)[C@@H](CCCNC(=N)N)NC(=O)[C@@H](CNC(=O)[C@@H](CC(C)C)NC(=O)[C@H](N)CCCNC(=N)N)NC(=O)[C@@H](CC(C)C)NC(=O)[C@H](N)CCCNC(=N)N)C(N)=O` [MSt-156, (rl)8(brl)4(brl)2(brl)] (I: H-[dR][dL][dDap]([dL-dR])[dR][dL][dDap][dR][dL][dDap][dR][dL]-NH2 / II: H-[dR][dL][dDap]([dL-dR])[dR][dL][dDap][dR][dL] / III: H-[dR][dL][dDap]([dL-dR])[dR][dL] / IV: H-[dR][dL][dDap]([dL-dR])[dR][dL]; amide I:6-IV:C, I:9-II:C, II:6-III:C), for which, in experiment [1], the “MIC P. aeruginosa PAO1” value turned out to be 10 µg/mL (≈ 2.15 µM). In experiment [2], the “MIC E. coli DH5α” value came to 4 µg/mL (≈ 0.858 µM). In experiment [3], the “MIC B. subtilis BR151” value worked out at 7 µg/mL (≈ 1.5 µM).

As for `CCCCCCCCCC(=O)NCCCC[C@H](NC(=O)[C@H](CC(C)C)NC(=O)[C@H](CCCCN)NC(=O)[C@H](CCCCNC(=O)[C@H](CC(C)C)NC(=O)[C@H](CCCCN)NC(=O)[C@H](CCCCNC(=O)[C@H](CC(C)C)NC(=O)[C@@H](N)CCCCN)NC(=O)[C@H](CC(C)C)NC(=O)[C@@H](N)CCCCN)NC(=O)[C@H](CC(C)C)NC(=O)[C@H](CCCCN)NC(=O)[C@H](CCCCNC(=O)[C@H](CC(C)C)NC(=O)[C@@H](N)CCCCN)NC(=O)[C@H](CC(C)C)NC(=O)[C@@H](N)CCCCN)C(N)=O` [MSt-262, (KL)4(KKL)2(KKLKC10)] (I: H-KLK([Leu-Lys])KLKKLK(Decanoyl)-NH2 / II: H-KLK([Leu-Lys])KL; amide I:6-II:C), the “MIC P. aeruginosa PAO1” value in experiment [1] amounted to 1 µg/mL (≈ 0.421 µM). Moreover, in experiment [2], the “MIC E. coli DH5α” value was 1 µg/mL (≈ 0.421 µM). In addition, in experiment [3], the “MIC B. subtilis BR151” value amounted to 2 µg/mL (≈ 0.843 µM).

`CC(C)C[C@H](NC(=O)[C@H](CCCCN)NC(=O)[C@H](CCCCNC(=O)[C@H](CC(C)C)NC(=O)[C@@H](N)CCCCN)NC(=O)[C@H](CC(C)C)NC(=O)[C@@H](N)CCCCN)C(=O)NCCCC[C@H](NC(=O)[C@H](CC(C)C)NC(=O)[C@H](CCCCN)NC(=O)[C@H](CCCCNC(=O)[C@H](CC(C)C)NC(=O)[C@@H](N)CCCCN)NC(=O)[C@H](CC(C)C)NC(=O)[C@@H](N)CCCCN)C(=O)N[C@@H](CCCCN)C(=O)N[C@@H](CC(C)C)C(=O)N[C@@H](CSSC[C@H](NC(=O)[C@H](CC(C)C)NC(=O)[C@H](CCCCN)NC(=O)[C@H](CCCCNC(=O)[C@H](CC(C)C)NC(=O)[C@H](CCCCN)NC(=O)[C@H](CCCCNC(=O)[C@H](CC(C)C)NC(=O)[C@@H](N)CCCCN)NC(=O)[C@H](CC(C)C)NC(=O)[C@@H](N)CCCCN)NC(=O)[C@H](CC(C)C)NC(=O)[C@H](CCCCN)NC(=O)[C@H](CCCCNC(=O)[C@H](CC(C)C)NC(=O)[C@@H](N)CCCCN)NC(=O)[C@H](CC(C)C)NC(=O)[C@@H](N)CCCCN)C(N)=O)C(N)=O` [CCS-3 dimer, ((KL)4(KKL)2KKLC)2] (I: H-KLK([Leu-Lys])KLKKLC-NH2 / II: H-KLK([Leu-Lys])KLKKLC-NH2 / III: H-KLK([Leu-Lys])KL / IV: H-KLK([Leu-Lys])KL; amide I:6-III:C, II:6-IV:C; disulfide I:9-II:9; N-terminus assumed): the “MIC P. aeruginosa PAO1” value in experiment [1] is 3 µg/mL (≈ 0.684 µM). Further, in experiment [2], the “MIC E. coli DH5α” value is 4 µg/mL (≈ 0.912 µM). Besides, the “MIC B. subtilis BR151” value in experiment [3] came to 4 µg/mL (≈ 0.912 µM).

For `CC(C)C[C@H](NC(=O)[C@@H](N)CCN)C(=O)NCCCC[C@H](NC(=O)[C@H](CC(C)C)NC(=O)[C@@H](N)CCN)C(=O)N[C@@H](CCN)C(=O)N[C@@H](Cc1c[nH]c2ccccc12)C(=O)NCCCC[C@H](NC(=O)[C@H](Cc1c[nH]c2ccccc12)NC(=O)[C@H](CCN)NC(=O)[C@H](CCCCNC(=O)[C@H](CC(C)C)NC(=O)[C@@H](N)CCN)NC(=O)[C@H](CC(C)C)NC(=O)[C@@H](N)CCN)C(=O)N[C@@H](CCN)C(=O)N[C@@H](Cc1c[nH]c2ccccc12)C(=O)NCCCC[C@H](NC(=O)[C@H](Cc1c[nH]c2ccccc12)NC(=O)[C@H](CCN)NC(=O)[C@H](CCCCNC(=O)[C@H](Cc1c[nH]c2ccccc12)NC(=O)[C@H](CCN)NC(=O)[C@H](CCCCNC(=O)[C@H](CC(C)C)NC(=O)[C@@H](N)CCN)NC(=O)[C@H](CC(C)C)NC(=O)[C@@H](N)CCN)NC(=O)[C@H](Cc1c[nH]c2ccccc12)NC(=O)[C@H](CCN)NC(=O)[C@H](CCCCNC(=O)[C@H](CC(C)C)NC(=O)[C@@H](N)CCN)NC(=O)[C@H](CC(C)C)NC(=O)[C@@H](N)CCN)C(=O)N[C@@H](CCN)C(=O)N[C@@H](C)C(N)=O` [MSt-205, (DabL)8(KDabW)4(KDabW)2(KDabA)] (I: H-[Dab]LK([Leu-Dab])[Dab]WK[Dab]WK[Dab]A-NH2 / II: H-[Dab]LK([Leu-Dab])[Dab]WK[Dab]W / III: H-[Dab]LK([Leu-Dab])[Dab]W / IV: H-[Dab]LK([Leu-Dab])[Dab]W; amide I:6-IV:C, I:9-II:C, II:6-III:C; N-terminus assumed), the “MIC P. aeruginosa PAO1” value in experiment [1] amounted to 3 µg/mL (≈ 0.665 µM). The “MIC E. coli DH5α” value in experiment [2] amounted to 2 µg/mL (≈ 0.443 µM). Moreover, in experiment [3], the “MIC B. subtilis BR151” value amounted to 2 µg/mL (≈ 0.443 µM).
